Test results reported in patent US7429482B2, “Screening tools for discovery of novel anabolic agents” (United States of America as represented by the Department …, priority 2005, dated 2008).

How the values were obtained:
[1] = test system: MuRF1; assay: Chronic denervation: MuRF1 mRNA in gastrocnemius (qPCR); type: in vivo, rat; conditions: for reduction of MuRF1 expression: denervated muscle
Protocol: (§1) Male Wistar rats weighing 200-250 gm (Taconic Farms, Germantown, N.Y.) were provided food and water ad libitum and were housed in a temperature and humidity controlled environment providing a 12:12 hour day-night cycle. For surgical procedures, animals were anesthetized with ketamine/xylazine. The left sciatic nerve was exposed by blunt dissection, and a 1 to 2 mm piece of this nerve was excised just below the level of the femoral head. A sham surgery was performed on the right hind limb in which the sciatic nerve was exposed but was not transected. Twenty eight days later, animals were anesthetized, and Alzet pumps were implanted subcutaneously on the back. […] Testosterone levels after replacement were approximately 15 nM, a high-normal range for rats of this age. Animals were sacrificed 3, 7 or 28 days after implantation of the miniosmotic pumps by inhalation of carbon dioxide. Gastrocnemius muscles were excised and weighed, then flash frozen on dry ice and stored at −80° C.
Total RNA was extracted from skeletal muscle (20 mg) by homogenization in guanidine thiocyanate using a Polytron followed by extraction of total RNA with phenol-chloroform as described by (Chomczynski and Sacchi, Anal Biochem 162: 156-159, 1987). Total RNA was further enriched using RNAeasy minicolumns (Qiagen, Valencia, Calif.). This procedure included digestion of contaminating DNA on the column with RNAse-free DNAse (Qiagen). Total RNA was eluted and quantified by absorbance at 260 nm. One μg of total RNA was used to prepare a cDNA library by reverse transcription (High Capacity cDNA Archive Kit, Applied Biosystems). Libraries were diluted 25-fold with water. Real time PCR was performed Taqman 2×PCR buffer (Applied Biosystems) using an Applied Biosystems 7500 thermocycler. Levels of gene expression in the denervated muscle were expressed as fold induction relative to muscle from the sham-denervated leg of animals administered vehicle. […] Fold-induction was determined using the 2^−ΔΔCt method, using expression of 18S RNA as the normalization control. […]

[2] = test system: IGFBP-3; assay: Chronic denervation: IGFBP-3 mRNA in gastrocnemius (qPCR); type: in vivo, rat
Protocol: as §1, with “Animals were sacrificed 3, 7 or 28 days after implantation of the miniosmotic pumps by inhalation of carbon dioxide. Gastrocnemius muscles were excised and weighed, then flash frozen on dry ice and stored at −80° C.” left out
Total RNA was extracted from skeletal muscle (20 mg) by homogenization in guanidine thiocyanate using a Polytron followed by extraction of total RNA with phenol-chloroform as described by (Chomczynski and Sacchi, Anal Biochem 162: 156-159, 1987). […] Total RNA was eluted and quantified by absorbance at 260 nm. […] Levels of gene expression in the denervated muscle were expressed as fold induction relative to muscle from the sham-denervated leg of animals administered vehicle. […] Fold-induction was determined using the 2^−ΔΔCt method, using expression of 18S RNA as the normalization control. […]

[3] = test system: human MAFbx promoter; assay: Human MAFbx promoter luciferase reporter assay in C2C12 / C2C12.AR cells; type: cell-based
From the text: The reporter genes pMAF3.1, pMAF2.4, pMAF948, pMAF400, and pMAF400-241 express firefly luciferase under the control of promoter regions of the human MAFbx gene and are described in Example 1. The rARC562G vector, encoding rat AR with a C562->G mutation in the first zinc binding module that disrupts binding of AR to DNA was described by Palvimo et al. (Mol Endocrinol 7: 1399-1407, 1993) pAR.4RKM (expressing AR with 4 R/K->M mutations in the nuclear localization sequence that is unable to enter the nucleus) and pAR.ABC (lacking the ligand binding domain) were described by Zhou et al. (J Biol Chem 269: 13115-13123, 1994). The pBabe.puro retroviral backbone described by Morgenstern and Land (Nucleic Acids Res 18: 3587-3596, 1990) was modified by introduction of a Not1 site. The ARE reporter gene expressing firefly luciferase under control of the MMTV hormone response element, and pSP72hAR-1, containing an insert of the full-length cDNA clone of the human AR, were provided by Dr. Diane Robins (University of Michigan). pRL-CMV expressing Renilla luciferase was from Promega (Madison, Wis.).
C2C12 cells (American Type Culture Collection, Manassas, Va.) were maintained in Dulbeco's modified Eagle's Medium (DMEM) containing 10% fetal bovine serum (FBS) and penicillin (100 U/ml)/streptomycin (100 μg/ml) (growth medium). Cells were incubated at 37° C. in humidified air containing 10% CO2. 293T cells (American Type Culture Collection) were maintained in growth medium as above. Transfection was achieved using Lipofectamine-Plus (Invitrogen, Carlsbad, Calif.) using 200 ng total DNA per well.
Cells were seeded into wells of 24-well plates (5×10^5 cells/well) then maintained overnight in DMEM with 10% CDS-FBS. Cells were co-transfected with the various reporter genes and pRL-CMV. Cells were incubated in the transfection mixture overnight, then covered with DMEM supplemented with 10% charcoal-dextran-stripped FBS (CDS-FBS) and either ethanol (EtOH) or hormones dissolved in EtOH. Cells were maintained for an additional 24 hours, at which time both firefly and renilla luciferase activity were determined using the Dual Luciferase Assay (Promega, Madison, Wis.) and a Berthold 96-well plate luminometer. Firefly luciferase activities were normalized relative to renilla luciferase. Ethanol concentrations were less than 0.1%.

| SMILES | reduction of MuRF1 expression ([1]; 7-days administration) [%] | reduction of MuRF1 expression ([1]; 28-days administration) [%] | MuRF1 expression ([1]; muscle of sham-denervated hindlimbs) | IGF-BP-3 expression ([2]; denervated muscle, 56-days) | IGFBP-3 expression ([2]; sham-denervated muscle) | repression of pMAF3.1 reporter activity ([3]; C2C12.AR cells, 5 nM testosterone) | suppression of MAFbx reporter with 3′ deletion of 208 bases encoding the 5′ UTR ([3]; C2C12.AR cells, 500 nM) | repression of pMAF3.1 reporter activity ([3]; C2C12.AR cells, 500 nM testosterone) | repression of 5′ truncated MAFbx reporters ([3]; C2C12.AR cells, 500 nM, three 5′ truncations including pMAF400) | dexamethasone induced luciferase expression (pMAF3.1) ([3]; C2C12.AR cells, testosterone 5 nM) | dexamethasone induced luciferase expression (pMAF3.1) ([3]; C2C12.AR cells, testosterone 50 nM) | dexamethasone induced luciferase expression (pMAF3.1) ([3]; C2C12.AR cells, testosterone 500 nM) | suppression of reporter under control of 3.1 of the MAFbx upstream promoter ([3]; C2C12 muscle cells, 500 nM) [%] | expression of MAFbx reporter (general statement) ([3]; cells transduced with the MAFbx reporter construct) | effect on activity of pMAF3.1 reporter ([3]; wild-type C2C12 cells, 5 to 500 nM) | repression of pMAF3.1 reporter ([3]; wild-type C2C12 co-transfected with AR defective in nuclear entry (4RKM), 500 nM) | repression of pMAF3.1 reporter ([3]; wild-type C2C12 co-transfected with AR lacking ligand binding domain (ABC), 500 nM) | repression of pMAF3.1 reporter ([3]; wild-type C2C12 co-transfected with DNA binding domain mutant AR (C562G), 500 nM) | pMAF3.1 reporter gene activity ([3]; wild-type C2C12 co-transfected with wild-type AR, 500 nM) |
| --- | --- | --- | --- | --- | --- | --- | --- | --- | --- | --- | --- | --- | --- | --- | --- | --- | --- | --- | --- |
| C[C@]12CC[C@H]3[C@@H](CCC4=CC(=O)CC[C@@H]43)[C@@H]1CC[C@@H]2O [nandrolone] | 31 | 37 | no effect | significantly reduced | did not appreciably alter |  |  |  |  |  |  |  |  |  |  |  |  |  |  |
| C[C@]12CC[C@H]3[C@@H](CCC4=CC(=O)CC[C@@]43C)[C@@H]1CC[C@@H]2O [testosterone] |  |  |  |  |  | about 40% | abolished suppression | greater than 50% | apparent | partially inhibited | full suppression | suppressed below that of untreated cells | 40 | decreased | no effect | No repression | absent | repression was observed | significantly depressed |
